Measured values taken from article PMC7019360, “Antihypertensive Effects of Virgin Olive Oil (Unfiltered) Low Molecular Weight Peptides with ACE Inhibitory Activity in Spontaneously Hypertensive Rats” (Nutrients, 2020).
Read-outs that look alike come from different tables or passages of the source. Ends that are not written are not given here. Peptide text beside a SMILES is read from it.

How the values were obtained:
[1] = tested on: spontaneously hypertensive rats (SHR); experiment: Antihypertensive activity in SHR, tail-cuff SBP after acute oral administration; format: in vivo, rat; settings: oral Captopril 50 mg/kg BW, at 24 h
Source text: The antihypertensive effect of synthetic peptides No. 1 (RDGGYCC), No. 2 (LEEFCC), No. 3 (HCGCNTH) and No. 4 (CCGNAVPQ) was studied on the systolic blood pressure (SBP) and diastolic blood pressure (DBP) using the spontaneously hypertensive rat (SHR) animal model of hypertension. The tail-cuff method was used to measure SBP and DBP [36] as described in [28]. We selected a dose of synthetic peptides in the range described in previous studies of antihypertensive effects of peptides with ACE inhibitory activity. SBP and DBP data was always collected by the same technician. A period of training of two weeks was set to allow the animals to be habituated to this methodology. Forty-eight male SHR (age 19–21 weeks) were used. The average BW of the animals was 322.0 ± 6.0 g. The synthetic peptides were dissolved in water and were administered orally to the animals (about 1 mL per animal). The ACE inhibitor drug Captopril (Sigma, St. Louis, MO, USA) was used as a positive control and water was used as a negative control. The SHR were distributed randomly into 6 study groups (n = 8 per group) and received an oral dose of one of the four synthetic peptides (25 mg/kg of BW), or a dose of Captopril (50 mg/kg of BW) or water (1 mL). SBP and DBP were measured in the rats at baseline (time 0) and at 2, 4, 8 and 24 h post-administration of the peptides or controls. […]

[2] = target: angiotensin-converting enzyme (ACE) (Homo sapiens, UniProt P12821); experiment: ACE inhibitory activity in vitro (IC50); format: biochemical; settings: chemically synthesised peptides, method of ref 35 with modifications of ref 28, mean ± SD, read-out: ACEi Activity IC50 (µm) ± SD
Sequence of angiotensin-converting enzyme (ACE) (P12821 30-1306, species assumed): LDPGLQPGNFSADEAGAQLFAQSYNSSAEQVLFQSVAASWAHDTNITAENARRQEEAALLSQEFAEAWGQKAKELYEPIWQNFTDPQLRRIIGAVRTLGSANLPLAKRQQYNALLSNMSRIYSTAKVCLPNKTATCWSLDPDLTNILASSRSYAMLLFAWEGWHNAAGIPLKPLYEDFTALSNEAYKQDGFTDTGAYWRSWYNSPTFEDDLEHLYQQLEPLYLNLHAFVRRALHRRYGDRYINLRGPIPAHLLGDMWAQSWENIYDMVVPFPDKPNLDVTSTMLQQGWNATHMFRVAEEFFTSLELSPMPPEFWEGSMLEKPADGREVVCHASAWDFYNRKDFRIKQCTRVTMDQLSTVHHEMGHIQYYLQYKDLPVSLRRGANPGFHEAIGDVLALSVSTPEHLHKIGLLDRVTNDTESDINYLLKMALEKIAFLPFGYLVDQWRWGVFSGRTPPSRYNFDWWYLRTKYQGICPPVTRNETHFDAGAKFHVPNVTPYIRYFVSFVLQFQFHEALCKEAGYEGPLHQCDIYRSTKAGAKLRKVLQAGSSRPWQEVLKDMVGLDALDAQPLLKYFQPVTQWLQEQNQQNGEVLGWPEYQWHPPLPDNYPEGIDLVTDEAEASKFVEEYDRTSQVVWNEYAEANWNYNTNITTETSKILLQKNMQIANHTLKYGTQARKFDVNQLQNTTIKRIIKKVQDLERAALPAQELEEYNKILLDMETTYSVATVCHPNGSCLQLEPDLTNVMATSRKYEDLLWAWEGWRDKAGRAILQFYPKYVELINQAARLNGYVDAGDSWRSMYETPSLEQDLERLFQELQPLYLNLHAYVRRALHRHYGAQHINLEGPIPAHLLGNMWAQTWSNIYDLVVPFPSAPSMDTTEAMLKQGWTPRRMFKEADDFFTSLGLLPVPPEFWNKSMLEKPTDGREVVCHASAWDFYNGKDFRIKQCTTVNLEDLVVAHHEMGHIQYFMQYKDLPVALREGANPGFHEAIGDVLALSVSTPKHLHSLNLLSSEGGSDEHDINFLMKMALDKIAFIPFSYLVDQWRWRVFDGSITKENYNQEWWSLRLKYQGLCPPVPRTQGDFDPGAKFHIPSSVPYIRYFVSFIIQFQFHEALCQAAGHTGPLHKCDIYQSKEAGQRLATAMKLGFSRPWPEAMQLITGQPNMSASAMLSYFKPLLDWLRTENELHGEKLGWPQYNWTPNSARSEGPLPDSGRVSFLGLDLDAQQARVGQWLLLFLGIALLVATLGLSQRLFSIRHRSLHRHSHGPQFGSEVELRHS
Source text: The ACE inhibitory activity of the samples was studied using the methodology specified in [35], with some modifications. The ACE inhibitory activity is shown as IC50, or the concentration needed to inhibit the activity of the enzyme by 50%.

SHR = settings: bovine casein-derived peptide; cited from earlier work
Source text: The study of ACE inhibitor peptides in foods is a very active area of research and there are a few available data bases with information on peptide sequences and biological activity. We used the BIOPEP data base to assist with our selection of peptides because it uses previous published research providing information about the number of ACE inhibitor motifs of a peptide sequence and calculates the peptide's theoretical activity. Apart from the ACE inhibitory activity, the data base detected additional potential activities of our selected peptides, including antioxidant (Nos. 9 and 11), anti-th ... || The process of development of high blood pressure in humans presents analogies with the development of hypertension in SHR. For this reason, the SHR model has been extensively used in the evaluation of food peptides with antihypertensive potential. […] It contains four dipeptides (DG, GG, GY, DG) with previously reported activity, h ...

ACE = settings: bovine casein-derived peptide; cited from earlier work
Source text: The process of development of high blood pressure in humans presents analogies with the development of hypertension in SHR. For this reason, the SHR model has been extensively used in the evaluation of food peptides with antihypertensive potential. […] It contains four dipeptides (DG, GG, GY, DG) with previously reported activity, h ...

[3] = Water solubility of synthetic peptide; format: physicochemical; settings: reason why the ACE activity was not determined

Compound | IC50 ([2]; SD) | also measured
C[C@H](CS)C(=O)N1CCC[C@H]1C(=O)O [Captopril] | – | Time course of the antihypertensive effect (SBP) [1]: returned to basal levels
N=C(N)NCCC[C@H](N)C(=O)N[C@@H](CC(=O)O)C(=O)NCC(=O)NCC(=O)N[C@@H](Cc1ccc(O)cc1)C(=O)N[C@@H](CS)C(=O)N[C@@H](CS)C(=O)O [SEQ No.1] (H-RDGGYCC-OH) | 0.84 ± 0.02 µM | –
CC(C)C[C@H](N)C(=O)N[C@@H](CCC(=O)O)C(=O)N[C@@H](CCC(=O)O)C(=O)N[C@@H](Cc1ccccc1)C(=O)N[C@@H](CS)C(=O)N[C@@H](CS)C(=O)O [SEQ No.2] (H-LEEFCC-OH) | 1.85 ± 0.16 µM | –
C[C@@H](O)[C@H](NC(=O)[C@H](CC(N)=O)NC(=O)[C@H](CS)NC(=O)CNC(=O)[C@H](CS)NC(=O)[C@@H](N)Cc1c[nH]cn1)C(=O)N[C@@H](Cc1c[nH]cn1)C(=O)O [SEQ No.3] (H-HCGCNTH-OH) | 2.58 ± 0.26 µM | –
CC(C)[C@H](NC(=O)[C@H](C)NC(=O)[C@H](CC(N)=O)NC(=O)CNC(=O)[C@H](CS)NC(=O)[C@@H](N)CS)C(=O)N1CCC[C@H]1C(=O)N[C@@H](CCC(N)=O)C(=O)O [SEQ No.4] (H-CCGNAVPQ-OH) | 39.6 ± 2.09 µM | –
CC(C)C[C@H](NC(=O)[C@H](CC(=O)O)NC(=O)[C@H](CS)NC(=O)CNC(=O)[C@H](CS)NC(=O)CNC(=O)[C@@H](N)Cc1ccc(O)cc1)C(=O)N1CCC[C@H]1C(=O)O [SEQ No.5] (H-YGCGCDLP-OH) | 3.51 ± 0.21 µM | –
CC(C)C[C@H](NC(=O)[C@@H]1CCCN1C(=O)[C@H](CC(=O)O)NC(=O)[C@H](CS)NC(=O)CNC(=O)[C@H](CS)NC(=O)CNC(=O)[C@@H](N)Cc1ccc(O)cc1)C(=O)O [SEQ No.6] (H-YGCGCDPL-OH) | 1.64 ± 0.02 µM | –
C[C@H](NC(=O)[C@H](C)NC(=O)[C@@H](N)Cc1c[nH]c2ccccc12)C(=O)NCC(=O)N[C@@H](Cc1ccc(O)cc1)C(=O)N[C@@H](CS)C(=O)N[C@@H](CS)C(=O)O [SEQ No.8] (H-WAAGYCC-OH) | 6.88 ± 0.3 µM | –
EAPGGYDD [SEQ No.19] | – | IC50 [2]: > 405 µM
EECHAH [SEQ No.9] | 11.8 ± 1.99 µM | –
KRRPPTT [SEQ No.18] | – | IC50 [2]: > 390 µM
KVLPVPQ | – | SBP reducing effect in SHR (SHR): high SBP reducing effect; In vitro ACE inhibitory activity (ACE): low in vitro ACE inhibitory activity
LALAPTN [SEQ No.14] | 135 ± 13.5 µM | –
LALSAPVP [SEQ No.16] | 305 ± 10.9 µM | –
LEFTSSY [SEQ No.12] | 107 ± 14.7 µM | –
LQFCCY [SEQ No.17, synthetic peptide LQFCCY from olive oil extract] | – | Water solubility [3]: not water soluble
MSMAPY [SEQ No.23] | – | IC50 [2]: > 480 µM
RPVPPVF [SEQ No.15] | 230 ± 36.5 µM | –
YEAYPS [SEQ No.21] | – | IC50 [2]: > 460 µM
YMHCYF [SEQ No.7] | 3.2 ± 0.23 µM | –
